Experiments:
HMEC-1 [1] = experiment: PGE2-induced vascular endothelial cell migration (scratch assay); assay type: cell-based, human; settings: 2 hours pretreatment; 20 μM PGE2, 24 hours; FIG. 9
Experimental: Human vascular endothelial cells (HMEC-1) were seeded in a 12-well plate at a density of 2×10^5 cells per well and cultured in an incubator for 24 hours at 37° C. under 5% CO2. After the cells in each well were grown to 80% confluency, the central part of each well was scratched using a yellow pipette tip. Next, each well was pretreated with each concentration of isookanin for 2 hours and then treated with 20 μM PGE2 and incubated for 24 hours. As a negative control, 100 ng/ml of VEGF was used. After 24 hours of incubation, the degree of vascular cell migration was observed using a microscope, and the results were photographed with a microscope camera and shown in FIG. 9.

COX-2 = molecular target: T1, COX-2 (Homo sapiens, UniProt P35354); experiment: COX-2 enzyme activity, cyclooxygenase (COX) activity assay kit; assay type: biochemical; settings: 5, 10 and 20 ppm; FIG. 5
T1 construct: BioVision
T1 sequence (P35354 18-604): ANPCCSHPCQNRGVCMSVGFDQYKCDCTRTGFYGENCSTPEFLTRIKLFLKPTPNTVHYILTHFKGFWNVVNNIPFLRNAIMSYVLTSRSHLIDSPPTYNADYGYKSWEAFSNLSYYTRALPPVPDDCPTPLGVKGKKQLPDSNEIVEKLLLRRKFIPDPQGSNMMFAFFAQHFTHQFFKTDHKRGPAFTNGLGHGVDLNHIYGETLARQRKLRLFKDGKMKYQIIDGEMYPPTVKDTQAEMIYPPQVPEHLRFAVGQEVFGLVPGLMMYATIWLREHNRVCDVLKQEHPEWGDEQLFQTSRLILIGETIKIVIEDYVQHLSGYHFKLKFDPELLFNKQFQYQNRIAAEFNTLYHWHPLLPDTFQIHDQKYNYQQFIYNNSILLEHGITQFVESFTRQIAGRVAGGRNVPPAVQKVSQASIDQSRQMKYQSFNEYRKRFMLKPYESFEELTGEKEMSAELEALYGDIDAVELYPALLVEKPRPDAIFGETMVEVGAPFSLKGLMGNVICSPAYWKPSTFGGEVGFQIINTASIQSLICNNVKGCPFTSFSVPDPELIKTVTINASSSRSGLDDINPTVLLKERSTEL
Experimental: COX-2 enzyme inhibitory activity was measured using a cyclooxygenase (COX) activity assay kit (BioVision). 2 μl of COX probe, 4 μl of diluted COX cofactor, and varying concentrations (5, 10, and 20 ppm) of isookanin were added to the COX assay buffer included in the kit. As a negative control, DMSO was added instead of isookanin, and as a positive control, the COX-2 inhibitor celecoxib was added.

COX-2 promoter = experiment: LPS-induced COX-2 promoter luciferase reporter in RAW 264.7 macrophages; assay type: cell-based, mouse; settings: 1, 5 and 10 ppm, LPS 100 ng/mL, FIG. 4
Experimental: Mouse macrophages (RAW 264.7) were seeded in a 24-well microplate at a density of about 2×10^5 cells per well, and cultured in an incubator for 24 hours at 37° C. under 5% CO2. The RAW264.7 cells were transfected with the COX-2 promoter luciferase reporter plasmid, and then treated with 1, 5, and 10 ppm of isookanin, and then treated with LPS (100 ng/mL). After culturing, the cell culture was harvested. Subsequently, luciferase enzyme activity was measured using a microplate reader (Sunrise, Tecan, Switzerland). Mouse macrophages not treated with isookanin and LPS were used as a negative control (−).

PGE2 = experiment: UV-induced PGE2 secretion in human epidermal keratinocytes (ELISA); assay type: cell-based; settings: 1, 5 and 10 ppm, UVB 20 mJ/cm^2, FIG. 6
Experimental: Human epidermal keratinocytes (HEKs) were seeded in a 24-well microplate at a density of about 2×10^5 cells per well, and cultured in an incubator for 24 hours at 37° C. under 5% CO2. Thereafter, the cells were treated with each of 1, 5, and 10 ppm of isookanin, and then irradiated with UV light (UVB 20 mJ/cm^2), and then the cell culture medium was collected. Next, the secretion level of PGE2 was measured using an ELISA kit. As a negative control (−), human keratinocytes not treated with isookanin and UV light (UVB) were used.

human skin = experiment: Human skin safety, repeated insult patch test (Finn chamber); assay type: in vivo; settings: 30 healthy adults
Experimental: In order to confirm that the isookanin according to the present invention is safe for human skin, a skin safety verification test was performed. To this end, a repeated insult patch test was conducted.
Nourishing creams containing the isookanin in amounts of 0.1%, 0.5% and 1%, respectively, were prepared. Specifically, a water phase containing purified water, triethanolamine and propylene glycol was dissolved by heating to 70° C. and then emulsified by adding a solution obtained by dissolving beeswax, liquid paraffin, an oil component, an emulsifier and a preservative by heating to 70° C. After completion of emulsification, the solution was cooled to 45° C., and the isookanin was added thereto in amounts of 0.1%, 0.5% and 1% and dispersed therein, followed by cooling to 30° C. As the content of the isookanin was increased from 0.1% to 0.5% and 1%, the content of liquid paraffin was decreased from 9.91% to 9.51% and 9.01%, respectively, thereby preparing nourishing creams.
Using the nourishing creams prepared as described above, a repeated insult patch test was conducted on the upper arm areas of 30 healthy adults every other day for a total of 9 times for 24 hours per time to determine whether the isookanin irritated the skin.
The patch test was performed using a Finn chamber (Epitest Ltd., Finland). 15 μl of each of the external skin preparations was dropped into the chamber, and then the patch test was performed.
[Equation 1] Average degree of reaction=[[(reaction index×degree of reaction)/(total number of subjects×highest score (4)]×100]÷number of tests (9)
In the degree of reaction, ± represents a score of 1, + represents a score of 2, and ++ represents a score of 4. When the average degree of reaction is less than 3, the corresponding composition is determined to be safe.

HMEC-1 [2] = experiment: PGE2-induced vascular endothelial cell tube formation on Matrigel; assay type: cell-based, human; settings: 10 ppm, 2 hours pretreatment; 20 μM PGE2, 24 hours; FIGS. 10 and 11
Experimental: Human vascular endothelial cells (HMEC-1) were seeded in a Matrigel-coated 24-well plate at a density of 1.2×10^5 cells per well, and each well was pretreated with 10 ppm of isookanin for 2 hours. Next, each well was treated with PGE2 at a concentration of 20 μM and incubated for 24 hours. As a negative control, 100 ng/ml of VEGF was used. After 24 hours of incubation, the degree of vascular cell tube formation was observed using a microscope, and the results were photographed with a microscope camera and analyzed with Image J, and are shown in FIGS. 10 and 11.

O=C1C[C@@H](c2ccc(O)c(O)c2)Oc2c1ccc(O)c2O [isookanin]
inhibition of human vascular endothelial cell migration induced by PGE2 (HMEC-1 [1]): effectively inhibiting human vascular endothelial cell migration induced by PGE2 | inhibition of COX-2 enzyme activity (COX-2): inhibiting the activity of COX-2 enzyme in a concentration-dependent manner | inhibition of LPS-induced activation of COX-2 promoter (COX-2 promoter): inhibiting the LPS-induced activation of COX-2 promoter in a concentration-dependent manner | inhibition of UV-induced PGE2 expression (PGE2): inhibiting the expression of PGE2 in a concentration-dependent manner | Average degree of reaction (human skin; upper arm, 24 hours per patch, Equation 1, less than 3 is determined to be safe): ≤ 3 | skin safety conclusion of the repeated insult patch test (human skin; nourishing creams with 0.1%, 0.5% and 1% isookanin): safe substance that shows no remarkable cumulative irritation aspect | inhibition of human vascular endothelial cell tube formation induced by PGE2 (HMEC-1 [2]): effectively inhibiting human vascular endothelial cell tube formation induced by PGE2
